Measurements published in PMC8111447 (Frontiers in Pharmacology, 2021).

What was measured:
Experiment in all cases: Kinase panel (Eurofins)
Assay type in all cases: biochemical
Settings in all cases: n = 2; for inhibition at 1 µM: at 1 μmol/L; for IC50: read-out: IC50 kinase inhibition
TSSK1(h) = target: T1, TSSK1(h) (Homo sapiens, UniProt Q9BXA7)
T1 construct: purchased Eurofins
T1 sequence (Q9BXA7 1-367): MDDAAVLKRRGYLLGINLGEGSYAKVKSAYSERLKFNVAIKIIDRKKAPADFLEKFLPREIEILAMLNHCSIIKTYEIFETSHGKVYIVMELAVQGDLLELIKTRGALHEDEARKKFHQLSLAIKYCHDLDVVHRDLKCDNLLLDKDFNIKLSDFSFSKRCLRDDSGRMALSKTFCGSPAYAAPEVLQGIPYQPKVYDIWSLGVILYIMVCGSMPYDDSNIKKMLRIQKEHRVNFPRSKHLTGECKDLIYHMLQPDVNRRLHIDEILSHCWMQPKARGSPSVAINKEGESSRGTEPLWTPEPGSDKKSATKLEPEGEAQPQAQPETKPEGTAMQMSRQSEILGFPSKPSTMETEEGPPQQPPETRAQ
Source text: (§1) These receptors have a methionine gatekeeper in their kinase domains, and are related to hyperglycemia in other clinical trials of EGFR TKI, such as Co-1686.

Fes(h) = target: T2, Fes(h) (Homo sapiens, UniProt P07332)
T2 construct: purchased Eurofins
T2 sequence (P07332 whole entry): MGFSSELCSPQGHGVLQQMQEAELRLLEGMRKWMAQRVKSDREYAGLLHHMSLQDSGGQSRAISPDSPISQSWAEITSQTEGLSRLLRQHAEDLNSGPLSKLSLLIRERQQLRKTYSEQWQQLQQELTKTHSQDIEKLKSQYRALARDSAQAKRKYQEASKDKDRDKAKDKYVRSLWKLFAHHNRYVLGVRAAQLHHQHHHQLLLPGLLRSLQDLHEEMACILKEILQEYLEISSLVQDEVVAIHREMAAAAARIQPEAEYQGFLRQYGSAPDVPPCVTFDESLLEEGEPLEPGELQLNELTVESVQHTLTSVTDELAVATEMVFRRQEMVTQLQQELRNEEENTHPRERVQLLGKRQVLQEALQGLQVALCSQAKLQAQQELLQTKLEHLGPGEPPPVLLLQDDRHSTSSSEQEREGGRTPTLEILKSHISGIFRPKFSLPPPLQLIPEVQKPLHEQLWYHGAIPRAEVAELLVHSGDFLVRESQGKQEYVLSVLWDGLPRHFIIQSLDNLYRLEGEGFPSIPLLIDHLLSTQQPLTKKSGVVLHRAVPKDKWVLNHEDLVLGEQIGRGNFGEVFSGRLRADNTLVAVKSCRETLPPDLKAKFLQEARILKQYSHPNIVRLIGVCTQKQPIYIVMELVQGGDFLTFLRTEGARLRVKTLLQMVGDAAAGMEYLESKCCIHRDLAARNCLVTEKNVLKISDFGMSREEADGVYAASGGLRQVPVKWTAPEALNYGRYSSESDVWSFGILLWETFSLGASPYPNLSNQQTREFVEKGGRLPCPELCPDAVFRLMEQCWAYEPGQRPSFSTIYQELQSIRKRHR
Source text: as §1

ErbB4(h) = target: T3, ErbB4(h) (Homo sapiens, UniProt Q15303)
T3 construct: purchased Eurofins
T3 sequence (Q15303 26-1308): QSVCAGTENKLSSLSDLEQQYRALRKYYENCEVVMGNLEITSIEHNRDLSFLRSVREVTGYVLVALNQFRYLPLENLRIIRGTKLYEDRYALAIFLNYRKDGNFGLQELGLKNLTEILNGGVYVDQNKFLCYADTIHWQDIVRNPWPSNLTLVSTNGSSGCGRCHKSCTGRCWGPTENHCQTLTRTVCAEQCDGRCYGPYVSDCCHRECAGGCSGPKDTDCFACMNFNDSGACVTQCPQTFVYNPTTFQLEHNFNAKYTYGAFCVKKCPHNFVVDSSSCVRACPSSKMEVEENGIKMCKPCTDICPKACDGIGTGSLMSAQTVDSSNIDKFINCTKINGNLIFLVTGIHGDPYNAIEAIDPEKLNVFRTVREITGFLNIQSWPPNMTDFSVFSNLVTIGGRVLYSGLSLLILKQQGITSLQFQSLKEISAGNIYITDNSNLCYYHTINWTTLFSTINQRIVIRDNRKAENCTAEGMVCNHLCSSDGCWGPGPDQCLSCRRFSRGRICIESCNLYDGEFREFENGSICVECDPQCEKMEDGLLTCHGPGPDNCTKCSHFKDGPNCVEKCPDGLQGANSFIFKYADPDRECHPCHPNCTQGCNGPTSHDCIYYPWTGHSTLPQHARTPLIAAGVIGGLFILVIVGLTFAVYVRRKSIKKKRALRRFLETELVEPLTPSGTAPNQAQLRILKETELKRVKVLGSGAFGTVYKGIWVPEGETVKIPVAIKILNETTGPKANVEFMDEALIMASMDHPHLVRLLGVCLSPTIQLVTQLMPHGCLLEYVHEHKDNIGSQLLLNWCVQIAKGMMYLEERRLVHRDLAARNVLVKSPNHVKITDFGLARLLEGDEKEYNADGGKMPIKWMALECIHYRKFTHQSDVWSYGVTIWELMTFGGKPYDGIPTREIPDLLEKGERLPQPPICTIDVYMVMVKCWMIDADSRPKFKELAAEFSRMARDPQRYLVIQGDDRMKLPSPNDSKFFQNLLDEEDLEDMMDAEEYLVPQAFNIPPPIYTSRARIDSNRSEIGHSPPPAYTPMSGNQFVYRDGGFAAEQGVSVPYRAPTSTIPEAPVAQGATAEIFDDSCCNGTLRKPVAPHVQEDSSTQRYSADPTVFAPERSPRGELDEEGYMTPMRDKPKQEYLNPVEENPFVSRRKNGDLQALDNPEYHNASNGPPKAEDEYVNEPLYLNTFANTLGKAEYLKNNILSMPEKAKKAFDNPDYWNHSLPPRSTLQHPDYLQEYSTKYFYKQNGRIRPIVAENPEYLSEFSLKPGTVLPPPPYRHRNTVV
Source text: as §1

HIPK4(h) = target: T4, HIPK4(h) (Homo sapiens, UniProt Q8NE63)
T4 construct: purchased Eurofins
T4 sequence (Q8NE63 1-616): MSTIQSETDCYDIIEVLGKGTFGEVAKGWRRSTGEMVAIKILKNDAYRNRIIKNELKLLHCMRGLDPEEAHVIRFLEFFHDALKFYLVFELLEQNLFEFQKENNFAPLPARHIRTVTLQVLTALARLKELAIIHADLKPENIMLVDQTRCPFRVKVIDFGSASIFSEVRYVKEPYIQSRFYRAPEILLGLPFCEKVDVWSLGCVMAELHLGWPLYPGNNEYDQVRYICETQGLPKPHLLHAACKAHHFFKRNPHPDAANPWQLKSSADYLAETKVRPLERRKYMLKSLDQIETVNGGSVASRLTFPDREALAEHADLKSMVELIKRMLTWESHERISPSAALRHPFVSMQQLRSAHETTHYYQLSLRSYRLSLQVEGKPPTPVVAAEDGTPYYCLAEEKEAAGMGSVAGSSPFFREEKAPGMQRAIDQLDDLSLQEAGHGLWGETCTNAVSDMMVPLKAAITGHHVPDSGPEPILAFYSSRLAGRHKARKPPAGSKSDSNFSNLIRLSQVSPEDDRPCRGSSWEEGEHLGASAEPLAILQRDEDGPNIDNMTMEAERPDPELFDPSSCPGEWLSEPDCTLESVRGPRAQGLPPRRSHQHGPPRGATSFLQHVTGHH
Source text: as §1

Ros(h) = target: T5, Ros(h) (Homo sapiens, UniProt P08922)
T5 construct: purchased Eurofins
Source text: as §1

LRRK2(h) = target: T6, LRRK2(h) (Homo sapiens, UniProt Q5S007)
T6 construct: purchased Eurofins
T6 sequence (Q5S007 whole entry): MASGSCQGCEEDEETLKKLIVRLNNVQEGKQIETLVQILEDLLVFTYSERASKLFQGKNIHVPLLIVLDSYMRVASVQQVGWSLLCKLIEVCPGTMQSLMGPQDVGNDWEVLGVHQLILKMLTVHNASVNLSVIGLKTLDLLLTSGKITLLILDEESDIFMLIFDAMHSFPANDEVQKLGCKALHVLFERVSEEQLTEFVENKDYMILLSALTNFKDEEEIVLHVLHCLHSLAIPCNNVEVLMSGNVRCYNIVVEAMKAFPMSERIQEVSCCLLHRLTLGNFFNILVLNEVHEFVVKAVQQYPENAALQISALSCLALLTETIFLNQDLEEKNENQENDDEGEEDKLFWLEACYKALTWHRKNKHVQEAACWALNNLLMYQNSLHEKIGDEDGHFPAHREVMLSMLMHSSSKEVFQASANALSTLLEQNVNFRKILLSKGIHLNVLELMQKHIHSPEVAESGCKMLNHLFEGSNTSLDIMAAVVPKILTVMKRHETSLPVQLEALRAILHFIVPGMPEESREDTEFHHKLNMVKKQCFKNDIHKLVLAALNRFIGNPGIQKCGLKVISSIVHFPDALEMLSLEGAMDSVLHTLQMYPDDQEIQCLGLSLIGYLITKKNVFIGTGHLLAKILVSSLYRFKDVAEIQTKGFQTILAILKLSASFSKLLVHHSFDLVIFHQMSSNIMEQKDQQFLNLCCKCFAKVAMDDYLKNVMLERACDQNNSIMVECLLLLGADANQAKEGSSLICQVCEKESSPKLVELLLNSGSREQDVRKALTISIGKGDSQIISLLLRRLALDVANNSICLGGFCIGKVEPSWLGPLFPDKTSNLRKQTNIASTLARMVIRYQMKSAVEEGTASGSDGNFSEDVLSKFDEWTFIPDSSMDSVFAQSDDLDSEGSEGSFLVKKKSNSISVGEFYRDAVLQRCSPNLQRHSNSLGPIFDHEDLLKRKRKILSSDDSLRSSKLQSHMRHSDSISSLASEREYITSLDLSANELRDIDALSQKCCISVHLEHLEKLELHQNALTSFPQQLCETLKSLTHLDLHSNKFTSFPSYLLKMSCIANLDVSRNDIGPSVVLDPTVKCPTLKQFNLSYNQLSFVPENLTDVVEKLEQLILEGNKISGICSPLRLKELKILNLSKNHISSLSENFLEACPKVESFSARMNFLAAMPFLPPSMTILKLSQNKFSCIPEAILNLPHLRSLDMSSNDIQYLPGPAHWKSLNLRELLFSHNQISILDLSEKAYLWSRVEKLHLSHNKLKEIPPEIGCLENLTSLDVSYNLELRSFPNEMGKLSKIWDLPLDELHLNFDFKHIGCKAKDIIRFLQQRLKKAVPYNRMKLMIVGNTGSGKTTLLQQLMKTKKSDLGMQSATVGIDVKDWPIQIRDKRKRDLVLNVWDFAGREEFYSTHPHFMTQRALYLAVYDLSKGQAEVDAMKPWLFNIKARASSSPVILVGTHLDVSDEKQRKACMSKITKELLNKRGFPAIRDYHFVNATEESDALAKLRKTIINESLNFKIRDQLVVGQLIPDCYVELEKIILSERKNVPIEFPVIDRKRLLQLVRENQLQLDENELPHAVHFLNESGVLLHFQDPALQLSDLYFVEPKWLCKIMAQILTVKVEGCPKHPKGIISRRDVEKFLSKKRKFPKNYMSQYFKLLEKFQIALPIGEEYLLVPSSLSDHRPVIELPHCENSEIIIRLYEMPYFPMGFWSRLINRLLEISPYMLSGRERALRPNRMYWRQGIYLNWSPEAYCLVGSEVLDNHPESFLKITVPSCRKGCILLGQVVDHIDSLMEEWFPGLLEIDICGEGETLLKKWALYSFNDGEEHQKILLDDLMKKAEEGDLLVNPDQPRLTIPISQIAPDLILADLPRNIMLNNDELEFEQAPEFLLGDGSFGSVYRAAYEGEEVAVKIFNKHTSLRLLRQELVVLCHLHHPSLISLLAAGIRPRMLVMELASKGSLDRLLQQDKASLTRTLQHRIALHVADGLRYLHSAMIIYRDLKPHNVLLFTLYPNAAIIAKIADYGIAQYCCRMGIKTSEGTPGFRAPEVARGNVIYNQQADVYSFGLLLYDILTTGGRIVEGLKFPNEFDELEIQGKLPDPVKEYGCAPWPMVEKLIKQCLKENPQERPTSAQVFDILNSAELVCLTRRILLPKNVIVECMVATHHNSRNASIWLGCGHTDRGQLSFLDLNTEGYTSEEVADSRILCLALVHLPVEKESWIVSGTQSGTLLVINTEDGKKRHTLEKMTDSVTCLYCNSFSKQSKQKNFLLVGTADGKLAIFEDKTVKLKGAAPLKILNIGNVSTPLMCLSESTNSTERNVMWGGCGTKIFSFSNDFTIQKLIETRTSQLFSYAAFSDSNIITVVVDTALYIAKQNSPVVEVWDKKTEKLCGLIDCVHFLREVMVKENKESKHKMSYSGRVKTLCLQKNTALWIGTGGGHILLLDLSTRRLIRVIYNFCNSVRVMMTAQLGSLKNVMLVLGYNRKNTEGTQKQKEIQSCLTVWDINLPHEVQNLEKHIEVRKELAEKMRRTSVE
Source text: as §1

IGF-1R(h) = target: T7, IGF-1R(h) (Homo sapiens, UniProt P08069)
T7 construct: purchased Eurofins
Source text: as §1

Flt4(h) = target: T8, Flt4(h) (Homo sapiens, UniProt P35916)
T8 construct: purchased Eurofins
Source text: as §1

MYO3B(h) = target: T9, MYO3B(h) (Homo sapiens, UniProt Q8WXR4)
T9 construct: purchased Eurofins
T9 sequence (Q8WXR4 1-1341): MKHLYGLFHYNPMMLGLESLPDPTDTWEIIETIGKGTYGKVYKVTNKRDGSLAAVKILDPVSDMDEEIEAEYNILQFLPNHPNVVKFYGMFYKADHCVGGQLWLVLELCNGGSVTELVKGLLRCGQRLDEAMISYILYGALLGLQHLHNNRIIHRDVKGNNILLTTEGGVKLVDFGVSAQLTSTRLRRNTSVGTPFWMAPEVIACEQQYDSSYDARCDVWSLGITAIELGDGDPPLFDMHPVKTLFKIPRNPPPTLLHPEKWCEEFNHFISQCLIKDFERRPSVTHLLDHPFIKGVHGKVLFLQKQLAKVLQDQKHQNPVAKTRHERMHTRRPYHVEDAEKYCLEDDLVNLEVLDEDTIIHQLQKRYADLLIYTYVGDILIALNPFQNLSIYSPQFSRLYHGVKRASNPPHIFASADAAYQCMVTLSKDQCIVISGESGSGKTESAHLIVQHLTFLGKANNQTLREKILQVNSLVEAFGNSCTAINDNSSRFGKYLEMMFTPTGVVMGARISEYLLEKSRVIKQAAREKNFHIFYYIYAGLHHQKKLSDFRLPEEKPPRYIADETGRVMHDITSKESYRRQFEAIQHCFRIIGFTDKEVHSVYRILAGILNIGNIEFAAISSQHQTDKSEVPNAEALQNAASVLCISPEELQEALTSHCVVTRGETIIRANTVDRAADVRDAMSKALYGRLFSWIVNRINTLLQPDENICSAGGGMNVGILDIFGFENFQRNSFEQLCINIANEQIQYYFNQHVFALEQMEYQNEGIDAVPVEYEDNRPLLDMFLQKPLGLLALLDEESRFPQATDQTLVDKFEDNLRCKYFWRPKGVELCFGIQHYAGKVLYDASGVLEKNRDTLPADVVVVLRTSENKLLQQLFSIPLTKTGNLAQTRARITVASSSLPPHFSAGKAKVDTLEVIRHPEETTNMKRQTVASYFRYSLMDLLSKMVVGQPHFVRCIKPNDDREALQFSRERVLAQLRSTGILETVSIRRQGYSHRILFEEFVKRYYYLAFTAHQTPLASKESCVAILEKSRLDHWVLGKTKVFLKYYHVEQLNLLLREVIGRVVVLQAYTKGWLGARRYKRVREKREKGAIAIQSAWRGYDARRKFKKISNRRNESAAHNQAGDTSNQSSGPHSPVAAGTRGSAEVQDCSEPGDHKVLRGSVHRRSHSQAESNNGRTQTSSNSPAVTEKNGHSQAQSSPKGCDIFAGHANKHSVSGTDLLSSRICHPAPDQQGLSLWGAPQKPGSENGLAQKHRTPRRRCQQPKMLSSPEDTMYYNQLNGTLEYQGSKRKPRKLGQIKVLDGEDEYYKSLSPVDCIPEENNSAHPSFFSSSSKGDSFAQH
Source text: as §1

Mnk2(h) = target: T10, Mnk2(h) (Homo sapiens, UniProt Q9HBH9)
T10 construct: purchased Eurofins
T10 sequence (Q9HBH9 whole entry): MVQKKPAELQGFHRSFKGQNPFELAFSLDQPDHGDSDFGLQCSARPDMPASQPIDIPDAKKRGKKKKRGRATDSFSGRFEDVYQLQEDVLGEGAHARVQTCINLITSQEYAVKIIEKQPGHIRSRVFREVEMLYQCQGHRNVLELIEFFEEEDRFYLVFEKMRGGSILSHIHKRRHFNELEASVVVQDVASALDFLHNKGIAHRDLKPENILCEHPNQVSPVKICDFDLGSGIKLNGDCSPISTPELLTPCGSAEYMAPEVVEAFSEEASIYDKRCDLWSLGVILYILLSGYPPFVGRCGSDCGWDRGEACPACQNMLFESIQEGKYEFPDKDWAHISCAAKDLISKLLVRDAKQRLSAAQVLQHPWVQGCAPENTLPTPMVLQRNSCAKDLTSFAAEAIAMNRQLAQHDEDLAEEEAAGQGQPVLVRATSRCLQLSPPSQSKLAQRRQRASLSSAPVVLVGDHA
Source text: as §1

inhibition at 1 µM (TSSK1(h)) [%] | IC50 (TSSK1(h)) [nM] | inhibition at 1 µM (Fes(h)) [%] | IC50 (Fes(h)) [nM] | inhibition at 1 µM (ErbB4(h)) [%] | IC50 (ErbB4(h)) [nM] | inhibition at 1 µM (HIPK4(h)) [%] | IC50 (HIPK4(h)) [nM] | inhibition at 1 µM (Ros(h)) [%] | IC50 (Ros(h)) [nM] | inhibition at 1 µM (LRRK2(h)) [%] | IC50 (LRRK2(h)) [nM] | inhibition at 1 µM (IGF-1R(h)) [%] | IC50 (IGF-1R(h)) [nM] | inhibition at 1 µM (Flt4(h)) [%] | IC50 (Flt4(h)) [nM] | inhibition at 1 µM (MYO3B(h)) [%] | IC50 (MYO3B(h)) [nM] | inhibition at 1 µM (Mnk2(h)) [%] | IC50 (Mnk2(h)) [nM] | SMILES
98 | 73 | 74 | 309 | 92 | 84 | 82 | 276 | 98 | 47 | 93 | 120 | 70 | 812 | 96 | 104 | 67 | 506 | 69 | 22 | C=CC(=O)Nc1cc(Nc2nccc(-c3c4n(c5ccccc35)CCCC4)n2)c(OC)cc1N(C)CCNC [Imp3]
84 | 104 | 46 | 557 | 90 | 46 | 67 | 232 | 96 | 50 | 89 | 82 | 38 | 574 | 92 | 62 | 58 | 349 | 63 | 23 | C=CC(=O)Nc1cc(Nc2nccc(-c3c4n(c5ccccc35)CCCC4)n2)c(OC)cc1N(C)CCN(C)C [SH-1028]
